Reference: patent publication US20090202428A1, “Use of Dtbz for Imaging Endocrine Pancreas and Beta Cell Mass In Type 1 Diabetes” (priority 2005, published 2009)

Key:
[1] = target: T1, VMAT2 expressed by β-cells of the endocrine pancreas (Rattus norvegicus, UniProt Q01827); assay: PET imaging with [11C]DTBZ of normal and STZ induced diabetic Lewis rats; format: in vivo
T1 construct: The inventors next targeted VMAT2 expressed by β-cells of the endocrine pancreas with [11C]; DTBZ; from tissue; host or cells: pancreas (beta cells of the islets) of living Lewis rats, normal and STZ-induced diabetic
T1 sequence (Q01827 whole entry): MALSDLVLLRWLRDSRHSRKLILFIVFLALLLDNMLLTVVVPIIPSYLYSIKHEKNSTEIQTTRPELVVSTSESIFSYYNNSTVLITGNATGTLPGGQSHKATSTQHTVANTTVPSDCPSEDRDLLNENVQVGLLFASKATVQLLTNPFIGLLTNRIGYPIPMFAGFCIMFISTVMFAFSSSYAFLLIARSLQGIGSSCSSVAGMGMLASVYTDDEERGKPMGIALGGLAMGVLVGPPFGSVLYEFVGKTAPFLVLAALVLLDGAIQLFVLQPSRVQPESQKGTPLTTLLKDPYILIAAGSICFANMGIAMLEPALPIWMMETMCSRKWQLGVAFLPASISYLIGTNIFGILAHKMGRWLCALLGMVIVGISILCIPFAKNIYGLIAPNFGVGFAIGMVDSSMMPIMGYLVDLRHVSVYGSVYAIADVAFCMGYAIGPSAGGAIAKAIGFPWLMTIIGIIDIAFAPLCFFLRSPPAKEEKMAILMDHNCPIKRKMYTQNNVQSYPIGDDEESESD
Method: Specific activities of carbon-11 labeled radiotracers were >2000 mCi/μmol at the time of injection.
STZ solution was prepared fresh by dissolving it in 0.1 M citrate buffer (pH 5.5) and terminally sterile filtered. Age and weight-matched control rats were injected with citrate buffer alone.
PET scans were performed on four normal and three diabetic adult rat subjects. Prior to imaging, the animals were anesthetized with intraperitoneal injections of ketamine and xylazine. After a whole-body transmission scan had been obtained (used to perform attenuation correction of the emission data), the radioligand was taken up in a sterile saline vehicle and 200-300 μCi of [11C] DTBZ was administered in a bolus injection via the penile vein. PET scans of the animals were acquired dynamically to 60 min postinjection on a Concorde microPET-R4 (CTI Molecular Imaging, Knoxville, Tenn., USA). The scanner provided a 100×80 mm field of view with a reconstructed resolution of 2.25 mm in the central 40 mm of the field of view. PET data were processed using attenuation correction matrix obtained by transmission scans and images were reconstructed using Fourier re-binning, followed by two-dimensional, filtered back projection. […]

VMAT2 = conditions: previous studies (Scherman et al.); cited from earlier work
[2] = system: islet membranes (purified human islets); assay: binding of [3H]DTBZ to total membrane fractions from purified human islets
Excerpt: (§1) Previous studies, at both protein and nucleic acid levels, have shown the underlying physiochemical basis for this functional similarity (Atouf, et al, 1997, Expression of neuronal traits in pancreatic beta cells. Implication of neuron-restrictive silencing factor/repressor element silencing transcription factor, a neuron-restrictive silencer, J Biol Chem 272:1929-1934, Bernal-Mizrachi, et al, 2003, Gene expression profiling in islet biology and diabetes research, Diabetes Metab Res Rev 19:32-42, and […] al, 1996, Differentiation and growth of pancreatic beta cells, Diabetes Metab 22:223-228). The inventors own gene expression mapping studies led them to focus on one such shared gene product, VMAT2, vesicular monoamine transporter type 2, expressed by β-cells, but absent from the exocrine pancreas and a variety of-the other abdominal organs ([…], et al, 2004, Identification of tissue-restricted transcripts in human islets, Endocrinology 145:4513-4521). A specific ligand for VMAT2, dihydrotetrabenazine (DTBZ) is already in clinical use for positron emission tomography (PET) imaging of central nervous system disorders (Vander Borght, et al, 1995, In vivo imaging of the brain vesicular monoamine transporter, J Nucl Med 36:2252-2260). The inventors studied the binding of [3H]DTBZ to total membranes fractions prepared from purified human islets and purified exocrine pancreas tissue.

[3] = system: membranes from the exocrine pancreas; assay: binding of [3H]DTBZ to total membrane fractions from purified exocrine pancreas tissue; design: species or system human
Excerpt: as §1

endocrine pancreas = assay: serial PET imaging with [11C]DTBZ in the spontaneously diabetic BB-DP rat model; format: in vivo; conditions: series of ten BB-DP rats, compared with IPGTT
Method: Blood samples were collected from the rat tail vein. The blood glucose (BG) levels of the rats were monitored daily using an Accu-Check blood glucose monitoring system (Roche Diagnostics, Somerville, N.J.). […] After baseline BG measurements, animals received an intraperitoneal injection of 1 g glucose/kg body wt. BG concentrations were measured again 5, 10, 15, 30, 60, and 120 min later. Animals were considered diabetic when four consecutive BG values were above 300 mg/dL and had abnormal IPGTT responses. Animals were imaged at baseline before the development of diabetes at day 45.
PET scans were performed serially on the study subject at approximately day 50 and then every two weeks until the animals developed stable diabetes. Prior to imaging, the animals were anesthetized with intrapertioneal injections of ketamine and xylazine. After a whole-body transmission scan had been obtained (used to perform attenuation correction of the emission data), the radioligand was taken up in a sterile saline vehicle and 200-300 μCi of [11C] DTBZ was administered in a bolus injection via the penile vein. PET scans of the animals were acquired dynamically to 60 min post injection on a Concorde microPET-R4 (CTI Molecular Imaging, Knoxville, Tenn., USA). The scanner provided a 100×80 mm field of view with a reconstructed resolution of 2.25 mm in the central 40 mm of the field of view. […]

COc1cc2c(cc1OC)[C@H]1C[C@@H](O)[C@H](CC(C)C)CN1CC2 [DTBZ, dihydrotetrabenazine]
DTBZ uptake in gastric and splenic regions of the pancreas compared to the head of the organ ([1]; normal rat pancreata, PET): higher
time post-injection up to which pancreatic DTBZ uptake increased monotonically ([1]; normal rat, 60 min imaging period, from 1 minute): about 50 minutes
target specificity of DTBZ (VMAT2): specifically targets VMAT2

COc1cc2c(cc1OC)[C@H]1C[C@@H](O)[C@H](CC(C)C)CN1CC2 [[3H]DTBZ]
binding of [3H]DTBZ to islet membranes [2]: specifically bound
binding of [3H]DTBZ to membranes from the exocrine pancreas [3]: not

COc1cc2c(cc1O[11CH3])CCN1CC(CC(C)C)C(O)CC21 (stereo not drawn) [[11C]DTBZ, [11C] dihydrotetrabenazine]
reduction of [11C]DTBZ uptake that resulted in signs of glucose intolerance and hyperglycemia (endocrine pancreas): approximately 50%
